PubChem BioAssay (NCI)
Where “and” joins values, the source holds several entries; their conditions need not be identical. Equal entries are not always repeated.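 96-well plates; 48 h exposure; 5 concentrations. Endpoints by linear interpolation between flanking doses. Not reached: highest tested concentration assigned. The concentration for 50% growth inhibition is given as GI50. TGI is the concentration that stops growth completely.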

Assays:
Test in all cases: NCI tumour cell line growth inhibition, 48 h
A549 NSCLC = test system: A549 NSCLC
CAKI-1 renal = test system: CAKI-1 renal
HOP-62 NSCLC = test system: HOP-62 NSCLC
MOLT-4 leukemia = test system: MOLT-4 leukemia
NCI-H23 lung = test system: NCI-H23 lung
OVCAR-5 ovarian = test system: OVCAR-5 ovarian
PC-3 prostate = test system: PC-3 prostate
T-47D breast = test system: T-47D breast
UO-31 renal = test system: UO-31 renal
NCI/ADR-RES ovarian = test system: NCI/ADR-RES ovarian

Structure (SMILES) | TGI (A549 NSCLC) | TGI (CAKI-1 renal) | TGI (HOP-62 NSCLC) | TGI (MOLT-4 leukemia) [µM] | TGI (NCI-H23 lung) | TGI (OVCAR-5 ovarian) | TGI (PC-3 prostate) | TGI (T-47D breast) | TGI (UO-31 renal) | TGI (NCI/ADR-RES ovarian) [µM] | GI50 (OVCAR-5 ovarian)
COc1ccc(C2c3cn[nH]c3CC3CCCCC32)cc1 (configuration not stated) | 30.9 µM | 27.3 µM | 36.8 µM | 46.1 | 33.6 µM | 34.8 µM | 29.8 µM | 19 µM | 29.9 µM |  | 
O=c1[nH][nH]c(=O)n1CCCCCCn1c(=O)[nH][nH]c1=O | > 100 µM | > 100 µM |  | > 100 | > 100 µM | > 100 µM | > 100 µM | > 100 µM | > 100 µM | > 100 | 
Cc1c(O)nc(-n2[nH]c3c(c2=O)CCCC3)[nH]c1=O |  | > 100 µM |  | > 100 | > 100 µM | > 100 µM | > 100 µM | > 100 µM | > 100 µM | > 100 | 
CSC1=N/C(=C\c2ccc(C)cc2)C(=O)N1CN1CCCCC1 | > 100 µM |  | > 100 µM | > 100 | > 100 µM | > 100 µM | > 100 µM |  | > 100 µM | > 100 | 
COc1cc(O)c2c(c1)C(=O)c1cc3c(c(O)c1C2=O)C(OC1OC(C)C(OC)C(O)C1OC)C(OC)C(C)(O)C3=O (configuration not stated) | 16.1 µM | 11 µM | 44.2 µM | 12.2 | 23.2 µM | 33.6 µM | 14.1 µM |  |  |  | 
S=c1c2cn[nH]c2nc2scc(-c3ccc(Cl)cc3)n12 | 30.5 µM | 24.6 µM | 40.1 µM | 60.1 | 30.1 µM | 29.4 µM | 29.8 µM |  | 41.8 µM | 31.2 | 
O=C1C=C/C(=N\N=C(c2ccccc2)c2ccccc2)O1 | > 10 µM | > 10 µM | > 10 µM | > 10 | > 10 µM |  | > 10 µM | > 10 µM |  |  | 
Cc1ccc(/C=N\NC2c3cc(Cl)ccc3Nc3nc(=O)[nH]c(C)c32)cc1 (configuration not stated) | > 100 µM |  | > 100 µM | > 100 | > 100 µM |  |  |  | > 100 µM |  | 
Cc1nc(C)c(N2CCN([N+](=O)[O-])CC2)c(=O)[nH]1 | > 100 µM | > 100 µM | > 100 µM | > 100 | > 100 µM |  | > 100 µM | > 100 µM | > 100 µM | > 100 | 
C[N+](C)([O-])CCOc1cc2c(c3ccccc13)-c1ccccc1C2=O | 54.6 µM | 61.9 µM | 69.6 µM | > 35.3 | 74.7 µM | 59.2 µM |  |  | 40 µM | > 100 | 
On1c(-c2ccccc2)c(-c2ccccc2N2CCCC2)c2ccccc21 | > 100 µM | > 100 µM | > 100 µM | > 100 | > 100 µM | > 100 µM |  |  |  |  | 
C=C(C(=O)OCC)C(=O)OCC | > 100 µM | > 100 µM | > 100 µM | > 100 | > 100 µM | > 100 µM | > 100 µM | > 100 µM | > 100 µM |  | 
CCOc1cc(/C=C2/C(C)=NN(c3cccc(Cl)c3)/C2=N/c2nc3ccccc3s2)ccc1O |  |  | > 100 µM | > 100 | 50.7 µM | > 100 µM | 43.5 µM | > 100 µM | 52.8 µM | 55.9 | 
CCOC(=O)C1S/C(=N\C(=N)N[N+](=O)[O-])N=C1C (configuration not stated) | > 100 µM |  | > 100 µM | > 100 | > 100 µM | > 100 µM |  |  | > 100 µM |  | 
COC(C)(C)C1(O)CC[C@@H](C)CC1=O (some centres not stated) | > 100 µM | > 100 µM | > 100 µM | > 100 | > 100 µM | > 100 µM | > 100 µM |  | > 100 µM |  | 
COc1ccc(C(=O)/C=C/c2ccc(OCCCOc3ccc(/C=C/C(=O)c4ccc(OC)cc4)cc3)cc2)cc1 | > 100 µM | > 100 µM | > 100 µM | > 100 |  | > 100 µM | > 100 µM | > 100 µM | > 100 µM | > 100 | 
C=C1CC(C#N)(C#N)[C@H]2C3CCCC3C[C@@H]12 (some centres not stated) (tested in a mixture with another compound) |  |  |  | 43.5 |  |  | 97.4 µM | > 100 µM | 35.3 µM | 48.2 | 
CNc1cc2c(c3ccccc13)C(CCl)CN2C(=O)c1cc2cc(OC)c(OC)c(OC)c2[nH]1 (configuration not stated) | > 100 µM | 0.00431 µM and 0.022 µM | 0.0319 µM | 0.023 | 0.00191 µM |  | 0.0223 µM and 0.116 µM | 0.0756 µM and 0.405 µM |  | 0.0156 | 
O=C(O)CCNc1ncnc2nc[nH]c12 | > 100 µM | > 100 µM | > 100 µM |  | > 100 µM | > 100 µM | > 100 µM | > 100 µM | > 100 µM | > 100 | 
COC(=O)C(Cc1ccc2c(c1)CCC2)Cc1ccc2c(c1)CCC2 | > 100 µM |  | > 100 µM | > 100 | > 100 µM | > 100 µM | > 100 µM | > 100 µM | > 100 µM | > 100 | 
COc1cc2c(cc1OC)C1C3CCCCC3CCN1CC2 (configuration not stated) | > 100 µM | > 100 µM | > 100 µM | > 100 | > 100 µM | > 100 µM | > 100 µM | > 100 µM |  | > 100 | 
O=C(O)COc1ccccc1C(=O)Nc1ccccc1 | > 100 µM | > 100 µM | > 100 µM | > 100 | > 100 µM | > 100 µM |  |  | > 100 µM |  | 
C=CCn1c(=O)c(C(=O)Nc2nc(C34CC5CC(CC(C5)C3)C4)cs2)c(O)c2ccccc21 | 45.1 µM | > 100 µM | > 100 µM | > 100 | > 100 µM | > 100 µM | > 100 µM |  | > 100 µM | 76.6 | 
O=C1OCC/C1=N/O | > 100 µM |  |  | > 100 | > 100 µM | > 100 µM |  |  | > 100 µM |  | 
CCOC(=O)N1CCC(N[C@@H]2c3cc4c(cc3C(c3cc(OC)c(O)c(OC)c3)C3C(=O)OC[C@@H]32)OCO4)CC1 (some centres not stated) | 1.44 µM and 5.01 µM | 2.35 µM and 2.26 µM | 2.63 µM and 2.65 µM |  | 2.62 µM and 2.69 µM | 14 µM and 17.4 µM |  |  | 3.21 µM and 4.14 µM |  | 3.3 µM and 7.49 µM
O=C(O)CN1CCN2CCCCCN(CC1)CCN(CC(=O)O)CC2 | > 100 µM | > 100 µM | > 100 µM |  |  | > 100 µM | > 100 µM | > 100 µM | > 100 µM | > 100 | 
O=C(O)C(Cl)(Cl)Cl | > 100 µM | > 100 µM |  | > 100 | > 100 µM | > 100 µM |  |  | > 100 µM |  | 
